Laboratory results from US9115139B2, “Pyrazinooxazepine derivatives” (TAKEDA PHARMACEUTICAL COMPANY LIMITED, priority 2009, dated 2015).

biological target: serotonin 5-HT2C receptor (VSV type isoform, stably expressing CHO cell) (Homo sapiens, UniProt P28335, I156V/I160V/N158S); type: cell-based
Sequence (P28335 33-458 I156V/N158S/I160V limits assumed): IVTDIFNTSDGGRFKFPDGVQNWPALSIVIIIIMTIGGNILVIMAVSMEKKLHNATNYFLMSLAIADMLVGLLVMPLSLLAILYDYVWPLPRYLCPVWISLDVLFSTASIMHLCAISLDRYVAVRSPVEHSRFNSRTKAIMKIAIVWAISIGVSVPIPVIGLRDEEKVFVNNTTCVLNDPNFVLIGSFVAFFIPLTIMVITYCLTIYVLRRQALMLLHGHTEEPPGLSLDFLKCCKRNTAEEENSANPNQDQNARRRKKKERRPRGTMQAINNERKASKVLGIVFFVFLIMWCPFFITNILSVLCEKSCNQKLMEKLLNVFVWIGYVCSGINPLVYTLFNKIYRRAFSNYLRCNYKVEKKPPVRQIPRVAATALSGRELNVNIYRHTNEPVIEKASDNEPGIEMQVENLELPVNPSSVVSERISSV

Point of comparison: `C[C@@H]1COCCN1c1cnc2c(n1)OCCNC2.Cl` [Example 5, 3-[(3R)-3-methylmorpholin-4-yl]-6,7,8,9-tetrahydropyrazino[2,3-f][1,4]oxazepine hydrochloride], “ratio (%) relative to maximum response by 5-HT (1 μM)” value 95%. Against it:
- CC(C)Oc1cnc2c(n1)OCCNC2.Cl [Example 2, 3-(1-methylethoxy)-6,7,8,9-tetrahydropyrazino[2,3-f][1,4]oxazepine hydrochloride] — lower, 93%
- Cl.c1nc2c(nc1C1CC1)OCCNC2 [Example 10, 3-cyclopropyl-6,7,8,9-tetrahydropyrazino[2,3-f][1,4]oxazepine hydrochloride] — lower, 89%
- CC(C)N(C)c1cnc2c(n1)OCCNC2.Cl [Example 8, N-methyl-N-(1-methylethyl)-6,7,8,9-tetrahydropyrazino[2,3-f][1,4]oxazepin-3-amine hydrochloride] — the same, 95%
